Series [1] in a line: Competitive slurries of anhydrous Form 1 and hydrate in water/methanol mixtures, stable form determined by DSC. More on the design: key to stable crystal form: A indicates the anhydrous form is the stable form; H indicates the hydrate is the stable form; U data was inconclusive. It counts as physicochemical. The procedure:
DSC was carried out using a Mettler Toledo DSC 820 or DSC1. A sample loading of around 5 mg was used and this was heated from 40° C. to 250° C. at a rate of 10° C./minute on the DSC820 or from 25° C. to 250° C. at a rate of 10° C./minute on the DSC1. The lid of the DSC crucible was pierced to allow the escape of any gas formed during the heating of the sample. The thermodynamic stability of hydrated crystals depends not only on temperature but also on the abundance of water, or more precisely, the water activity (aw), which is equivalent to the relative humidity. In order to determine under which conditions the anhydrous polymorph Form 1 and the hydrate are stable, a series of competitive slurries containing both crystal forms were prepared in different water/methanol mixtures and at a range of temperatures. The resulting crystals were analysed by DSC to determine the stable form under the given conditions. […] From the data above, the water/methanol compositions were converted into water activities and a phase diagram was constructed.
For orientation: DSC measures the heat that a sample takes up or gives off during a temperature scan.

The nature of series [2]: Stability of suspension concentrate formulation of anhydrous Form 1 contaminated with 5% hydrated form, temperature cycling. It counts as physicochemical. The note with it: SC of anhydrous Form 1 with 5% hydrated form, cycling 0° C. to 40° C. over 12 hours, after two weeks. Here is the method:
Two standard suspension concentrate (SC) formulations were separately prepared using the anhydrous Form 1 polymorph and the hydrated polymorph. The SC of the anhydrous Form 1 was contaminated with 5% of the hydrated form and placed in a temperature cycling oven varying from 0° C. to 40° C. over 12 hours. After two weeks, the sample was inspected. […] Some crystals were removed from the formulation and dried.

Experimental findings from US9617219B2, “Polymorphs of 3-difluoromethyl-1-methyl-1 H-pyrazole-4-carboxylic acid (9-dichloro-methylene-1,2,3,4-tetrahydro-1,4-methano-naphthalen-5-yl)-amide” (Syngenta Participations AG, priority 2014, dated 2017) are described below.

Each structure is given as a SMILES string.

`Cn1cc(C(=O)Nc2cccc3c2C2CCC3C2=C(Cl)Cl)c(C(F)F)n1` (stereo not drawn) [hydrate of compound (I), 3-difluoromethyl-1-methyl-1H-pyrazole-4-carboxylic acid (9-dichloromethylene-1,2,3,4-tetrahydro-1,4-methano-naphthalen-5-yl)-amide]: the “temperature required to dehydrate the hydrate” value in series [1] (normal ambient relative humidities, from phase diagram (FIG. 3)) is greater than 60 °C.
In the case of `Cn1cc(C(=O)Nc2cccc3c2C2CCC3C2=C(Cl)Cl)c(C(F)F)n1` (stereo not drawn) [anhydrous polymorph Form 1, 3-difluoromethyl-1-methyl-1H-pyrazole-4-carboxylic acid (9-dichloromethylene-1,2,3,4-tetrahydro-1,4-methano-naphthalen-5-yl)-amide], in series [2], the “polymorphic conversion (powder X-ray diffraction)” value is reported as “fully converted to the hydrated form” and the “size of the crystals (microscopy)” value is “increased substantially”.
With `Cn1cc(C(=O)Nc2cccc3c2C2CCC3C2=C(Cl)Cl)c(C(F)F)n1` (racemic) [compound of formula (I), 3-difluoromethyl-1-methyl-1H-pyrazole-4-carboxylic acid (9-dichloromethylene-1,2,3,4-tetrahydro-1,4-methano-naphthalen-5-yl)-amide], the stable crystal form entry in series [1] (1% water in methanol, 5 °C) is given as “A”; in series [1] (1% water in methanol, 20 °C), “A”; in series [1] (1% water in methanol, 35 °C), “A”; in series [1] (1% water in methanol, 40 °C), “A”; in series [1] (1% water in methanol, 45 °C) it was “A”; in series [1] (1% water in methanol, 60 °C), “A”. Moreover, the stable crystal form result in series [1] (5% water in methanol, 5 °C) was “A”; in series [1] (5% water in methanol, 20 °C), “A”; in series [1] (5% water in methanol, 35 °C), “A”; in series [1] (5% water in methanol, 40 °C), “A”; in series [1] (5% water in methanol, 45 °C) it was “A”; in series [1] (5% water in methanol, 60 °C), “A”. In addition, the stable crystal form entry in series [1] (7.5% water in methanol, 5 °C) is recorded as “H”; in series [1] (7.5% water in methanol, 15 °C) it was “H”; in series [1] (10% water in methanol, 5 °C) it was “H”; in series [1] (10% water in methanol, 15 °C) it was “H”; in series [1] (10% water in methanol, 20 °C), “U”; in series [1] (10% water in methanol, 30 °C) it was “U”. Moreover, the stable crystal form result in series [1] (10% water in methanol, 35 °C) is reported as “A”; in series [1] (10% water in methanol, 40 °C) it was “A”; in series [1] (10% water in methanol, 45 °C) it was “A”; in series [1] (10% water in methanol, 60 °C), “A”; in series [1] (12.5% water in methanol, 5 °C) it was “H”; in series [1] (15% water in methanol, 5 °C), “H”. Further, the stable crystal form result is recorded as “H” in series [1] (15% water in methanol, 15 °C); “H” in series [1] (15% water in methanol, 50 °C); “A” in series [1] (15% water in methanol, 60 °C); “H” in series [1] (20% water in methanol, 20 °C); “H” in series [1] (20% water in methanol, 30 °C); “H” in series [1] (20% water in methanol, 35 °C). Also, the stable crystal form entry is recorded as “H” in series [1] (20% water in methanol, 40 °C); “H” in series [1] (20% water in methanol, 45 °C); “H” in series [1] (20% water in methanol, 60 °C); “H” in series [1] (25% water in methanol, 50 °C); “H” in series [1] (25% water in methanol, 60 °C); “H” in series [1] (35% water in methanol, 60 °C).
